Reference: publication PMC4532999 (Scientific Reports, 2015)
Positions of bridges follow the written chain, without caps; N, C: chain ends. Non-standard residues stand in square brackets, D forms with d. Residues, ends and D or L forms follow the SMILES beside them. No end group written: not given here. pY = N[C@@H](Cc1ccc(OP(=O)(O)O)cc1)C(=O)O

Tests used:
[1] = Serum stability assay; conditions: 100% human serum, 37 °C
Description: All peptides were tested at a final concentration of 30 μM in 100% human serum. […] Reactions were stopped at the stipulated times and the serum proteins in each sample were denatured and precipitated, followed by centrifugation at 17,000 g for 10 min to separate the serum proteins from peptide samples. […] The elution time for each peptide was determined by the PBS control from 0 time point. The percentage of peptide remaining at each time point was calculated using the height of the serum-treated peptide peak from time 0 as 100% recovery.

[2] = target: Abl kinase (Homo sapiens, UniProt P00519); test: BacKin assay, inhibition of phosphorylation of abltide displayed on E. coli; type: biochemical; conditions: 32 μM peptide, Abl kinase 0.2 U/mL, 37 °C, 30 min
Chain of Abl kinase (P00519 whole entry): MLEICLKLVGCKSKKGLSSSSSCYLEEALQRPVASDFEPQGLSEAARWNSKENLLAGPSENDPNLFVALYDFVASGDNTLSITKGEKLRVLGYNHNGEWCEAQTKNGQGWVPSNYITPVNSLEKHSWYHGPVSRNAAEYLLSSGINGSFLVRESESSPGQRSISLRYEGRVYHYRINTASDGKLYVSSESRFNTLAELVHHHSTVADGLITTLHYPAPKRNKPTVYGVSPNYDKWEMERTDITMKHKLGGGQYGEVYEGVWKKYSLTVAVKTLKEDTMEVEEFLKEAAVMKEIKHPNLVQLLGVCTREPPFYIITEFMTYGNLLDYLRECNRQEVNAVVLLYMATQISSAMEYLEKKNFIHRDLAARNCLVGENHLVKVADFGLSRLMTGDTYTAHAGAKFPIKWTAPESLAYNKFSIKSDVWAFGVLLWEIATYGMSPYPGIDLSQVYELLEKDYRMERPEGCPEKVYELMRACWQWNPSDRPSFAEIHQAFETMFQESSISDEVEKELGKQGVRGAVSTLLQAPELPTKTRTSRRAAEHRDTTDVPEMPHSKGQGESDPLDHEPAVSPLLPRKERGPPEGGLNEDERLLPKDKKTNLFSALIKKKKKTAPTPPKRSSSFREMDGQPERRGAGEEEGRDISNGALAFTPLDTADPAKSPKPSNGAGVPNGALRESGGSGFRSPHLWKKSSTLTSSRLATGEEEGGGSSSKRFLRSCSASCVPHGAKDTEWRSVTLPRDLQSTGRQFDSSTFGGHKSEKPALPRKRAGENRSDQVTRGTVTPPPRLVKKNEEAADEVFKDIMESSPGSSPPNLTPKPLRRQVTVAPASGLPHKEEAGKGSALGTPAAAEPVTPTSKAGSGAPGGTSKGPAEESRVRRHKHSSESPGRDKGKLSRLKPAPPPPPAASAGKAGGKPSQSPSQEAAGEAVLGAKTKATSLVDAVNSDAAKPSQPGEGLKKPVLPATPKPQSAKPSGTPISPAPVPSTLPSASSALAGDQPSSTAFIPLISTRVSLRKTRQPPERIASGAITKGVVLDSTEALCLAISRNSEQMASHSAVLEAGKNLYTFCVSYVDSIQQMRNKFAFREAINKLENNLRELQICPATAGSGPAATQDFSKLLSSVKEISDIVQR

Molecule	percentage of Abl kinase inhibition [2]	other results
EAIYAAPFAKKK [abltide, reference compound]	–	time to complete degradation in human serum ([1]; 30 μM peptide, RP-HPLC): ≤ 1 h
CC[C@H](C)[C@@H]1NC(=O)[C@H](C)NC(=O)[C@H](CCC(=O)O)NC(=O)CNC(=O)[C@@H]2CSSC[C@@H]3NC(=O)[C@H](CC(=O)O)NC(=O)[C@H](CO)NC(=O)[C@H](CC(=O)O)NC(=O)[C@H](CCCNC(=N)N)NC(=O)[C@H](CCCNC(=N)N)NC(=O)[C@@H]4CSSC[C@H](NC(=O)[C@H]([C@@H](C)CC)NC(=O)[C@H](CSSC[C@H](NC(=O)[C@H](CCCNC(=N)N)NC(=O)[C@H](C)NC(=O)[C@H](Cc5ccccc5)NC(=O)[C@@H]5CCCN5C(=O)[C@H](C)NC(=O)[C@H](C)NC(=O)[C@H](Cc5ccc(OP(=O)(O)O)cc5)NC1=O)C(=O)N1CCC[C@H]1C(=O)N[C@@H](CCCCN)C(=O)N[C@@H]([C@@H](C)CC)C(=O)N[C@@H](CC(C)C)C(=O)N[C@@H](CCCCN)C(=O)N[C@@H](CCCCN)C(=O)N4)NC(=O)[C@H](C)NC(=O)CNC(=O)[C@@H]1CCCN1C3=O)C(=O)N[C@@H](CCCNC(=N)N)C(=O)NCC(=O)N[C@@H](CC(N)=O)C(=O)NCC(=O)N[C@@H](Cc1ccc(O)cc1)C(=O)N2 [MTAbl12] (cyclo(AAPFARCPKILKKCRRDSDCPGACICRGNGYCGEAI[pY]); disulfide 7-24, 14-26, 20-32)	–	stability in human serum (in words; comparison to MCoTI-II at 24 h) ([1]; 24 h, one-way ANOVA, three replicates): lower stability
CC[C@H](C)[C@@H]1NC(=O)[C@H](C)NC(=O)[C@H](CCC(=O)O)NC(=O)CNC(=O)[C@@H]2CSSC[C@@H]3NC(=O)[C@H](CC(=O)O)NC(=O)[C@H](CO)NC(=O)[C@H](CC(=O)O)NC(=O)[C@H](CCCNC(=N)N)NC(=O)[C@H](CCCNC(=N)N)NC(=O)[C@@H]4CSSC[C@H](NC(=O)[C@H]([C@@H](C)CC)NC(=O)[C@H](CSSC[C@H](NC(=O)[C@H](C)NC(=O)[C@H](Cc5ccccc5)NC(=O)[C@@H]5CCCN5C(=O)[C@H](C)NC(=O)[C@H](C)NC(=O)[C@H](Cc5ccc(O)cc5)NC1=O)C(=O)N1CCC[C@H]1C(=O)N[C@@H](CCCCN)C(=O)N[C@@H]([C@@H](C)CC)C(=O)N[C@@H](CC(C)C)C(=O)N[C@@H](CCCCN)C(=O)N[C@@H](CCCCN)C(=O)N4)NC(=O)[C@H](C)NC(=O)CNC(=O)[C@@H]1CCCN1C3=O)C(=O)N[C@@H](CCCNC(=N)N)C(=O)NCC(=O)N[C@@H](CC(N)=O)C(=O)NCC(=O)N[C@@H](Cc1ccc(O)cc1)C(=O)N2 [MTAbl01] (cyclo(AAPFACPKILKKCRRDSDCPGACICRGNGYCGEAIY); disulfide 6-23, 13-25, 19-31)	75%	–
CC[C@H](C)[C@@H]1NC(=O)[C@H](C)NC(=O)[C@H](CCC(=O)O)NC(=O)CNC(=O)[C@@H]2CSSC[C@@H]3NC(=O)[C@H](CC(=O)O)NC(=O)[C@H](CO)NC(=O)[C@H](CC(=O)O)NC(=O)[C@H](CCCNC(=N)N)NC(=O)[C@H](CCCNC(=N)N)NC(=O)[C@@H]4CSSC[C@H](NC(=O)[C@H]([C@@H](C)CC)NC(=O)[C@H](CSSC[C@H](NC(=O)[C@H](CCCCN)NC(=O)[C@H](C)NC(=O)[C@H](Cc5ccccc5)NC(=O)[C@@H]5CCCN5C(=O)[C@H](C)NC(=O)[C@H](C)NC(=O)[C@H](Cc5ccc(O)cc5)NC1=O)C(=O)N1CCC[C@H]1C(=O)N[C@@H](CCCCN)C(=O)N[C@@H]([C@@H](C)CC)C(=O)N[C@@H](CC(C)C)C(=O)N[C@@H](CCCCN)C(=O)N[C@@H](CCCCN)C(=O)N4)NC(=O)[C@H](C)NC(=O)CNC(=O)[C@@H]1CCCN1C3=O)C(=O)N[C@@H](CCCNC(=N)N)C(=O)NCC(=O)N[C@@H](CC(N)=O)C(=O)NCC(=O)N[C@@H](Cc1ccc(O)cc1)C(=O)N2 [MTAbl05] (cyclo(AAPFAKCPKILKKCRRDSDCPGACICRGNGYCGEAIY); disulfide 7-24, 14-26, 20-32)	~ 90%	–
CC[C@H](C)[C@@H]1NC(=O)[C@H](C)NC(=O)[C@H](CCC(=O)O)NC(=O)[C@@H]2CSSC[C@@H]3NC(=O)[C@H](CC(=O)O)NC(=O)[C@H](CO)NC(=O)[C@H](CC(=O)O)NC(=O)[C@H](CCCNC(=N)N)NC(=O)[C@H](CCCNC(=N)N)NC(=O)[C@@H]4CSSC[C@H](NC(=O)[C@H]([C@@H](C)CC)NC(=O)[C@H](CSSC[C@H](NC(=O)CNC(=O)[C@H](C)NC(=O)[C@H](Cc5ccccc5)NC(=O)[C@@H]5CCCN5C(=O)[C@H](C)NC(=O)[C@H](C)NC(=O)[C@H](Cc5ccc(O)cc5)NC1=O)C(=O)N1CCC[C@H]1C(=O)N[C@@H](CCCCN)C(=O)N[C@@H]([C@@H](C)CC)C(=O)N[C@@H](CC(C)C)C(=O)N[C@@H](CCCCN)C(=O)N[C@@H](CCCCN)C(=O)N4)NC(=O)[C@H](C)NC(=O)CNC(=O)[C@@H]1CCCN1C3=O)C(=O)N[C@@H](CCCNC(=N)N)C(=O)NCC(=O)N[C@@H](CC(N)=O)C(=O)NCC(=O)N[C@@H](Cc1ccc(O)cc1)C(=O)N2 [MTAbl03] (cyclo(AAPFAGCPKILKKCRRDSDCPGACICRGNGYCEAIY); disulfide 7-24, 14-26, 20-32)	50%	–
CC[C@H](C)[C@@H]1NC(=O)[C@H](C)NC(=O)[C@H](CCC(=O)O)NC(=O)CNC(=O)[C@@H]2CSSC[C@@H]3NC(=O)[C@H](CC(=O)O)NC(=O)[C@H](CO)NC(=O)[C@H](CC(=O)O)NC(=O)[C@H](CCCNC(=N)N)NC(=O)[C@H](CCCNC(=N)N)NC(=O)[C@@H]4CSSC[C@H](NC(=O)[C@H]([C@@H](C)CC)NC(=O)[C@H](CSSC[C@H](NC(=O)CNC(=O)[C@H](C)NC(=O)[C@H](Cc5ccccc5)NC(=O)[C@@H]5CCCN5C(=O)[C@H](C)NC(=O)[C@H](C)NC(=O)[C@H](Cc5ccc(O)cc5)NC1=O)C(=O)N1CCC[C@H]1C(=O)N[C@@H](CCCCN)C(=O)N[C@@H]([C@@H](C)CC)C(=O)N[C@@H](CC(C)C)C(=O)N[C@@H](CCCCN)C(=O)N[C@@H](CCCCN)C(=O)N4)NC(=O)[C@H](C)NC(=O)CNC(=O)[C@@H]1CCCN1C3=O)C(=O)N[C@@H](CCCNC(=N)N)C(=O)NCC(=O)N[C@@H](CC(N)=O)C(=O)NCC(=O)N[C@@H](Cc1ccc(O)cc1)C(=O)N2 [MTAbl02] (cyclo(AAPFAGCPKILKKCRRDSDCPGACICRGNGYCGEAIY); disulfide 7-24, 14-26, 20-32)	90%	–
CC[C@H](C)[C@@H]1NC(=O)[C@H](C)NC(=O)[C@H](CCC(=O)O)NC(=O)[C@@H]2CSSC[C@@H]3NC(=O)[C@H](CC(=O)O)NC(=O)[C@H](CO)NC(=O)[C@H](CC(=O)O)NC(=O)[C@H](CCCNC(=N)N)NC(=O)[C@H](CCCNC(=N)N)NC(=O)[C@@H]4CSSC[C@H](NC(=O)[C@H]([C@@H](C)CC)NC(=O)[C@H](CSSC[C@H](NC(=O)[C@H](CCCCN)NC(=O)[C@H](C)NC(=O)[C@H](Cc5ccccc5)NC(=O)[C@@H]5CCCN5C(=O)[C@H](C)NC(=O)[C@H](C)NC(=O)[C@H](Cc5ccc(O)cc5)NC1=O)C(=O)N1CCC[C@H]1C(=O)N[C@@H](CCCCN)C(=O)N[C@@H]([C@@H](C)CC)C(=O)N[C@@H](CC(C)C)C(=O)N[C@@H](CCCCN)C(=O)N[C@@H](CCCCN)C(=O)N4)NC(=O)[C@H](C)NC(=O)CNC(=O)[C@@H]1CCCN1C3=O)C(=O)N[C@@H](CCCNC(=N)N)C(=O)NCC(=O)N[C@@H](CC(N)=O)C(=O)NCC(=O)N[C@@H](Cc1ccc(O)cc1)C(=O)N2 [MTAbl04] (cyclo(AAPFAKCPKILKKCRRDSDCPGACICRGNGYCEAIY); disulfide 7-24, 14-26, 20-32)	~ 50%	–
